Results: patent publication US20260035384A1, “COMPOUND CONTAINING CYCLOHEXYL” (CHIA TAI TIANQING PHARMACEUTICAL GROUP CO., LTD., priority 2022, published 2026)

Target: T1, AR in VCaP cells (Homo sapiens, UniProt P10275)
T1 construct: Assay on Degradation Activity for AR in VCaP Cells; endogenous in cells; host or cells: VCaP cells
T1 sequence (P10275 1-920): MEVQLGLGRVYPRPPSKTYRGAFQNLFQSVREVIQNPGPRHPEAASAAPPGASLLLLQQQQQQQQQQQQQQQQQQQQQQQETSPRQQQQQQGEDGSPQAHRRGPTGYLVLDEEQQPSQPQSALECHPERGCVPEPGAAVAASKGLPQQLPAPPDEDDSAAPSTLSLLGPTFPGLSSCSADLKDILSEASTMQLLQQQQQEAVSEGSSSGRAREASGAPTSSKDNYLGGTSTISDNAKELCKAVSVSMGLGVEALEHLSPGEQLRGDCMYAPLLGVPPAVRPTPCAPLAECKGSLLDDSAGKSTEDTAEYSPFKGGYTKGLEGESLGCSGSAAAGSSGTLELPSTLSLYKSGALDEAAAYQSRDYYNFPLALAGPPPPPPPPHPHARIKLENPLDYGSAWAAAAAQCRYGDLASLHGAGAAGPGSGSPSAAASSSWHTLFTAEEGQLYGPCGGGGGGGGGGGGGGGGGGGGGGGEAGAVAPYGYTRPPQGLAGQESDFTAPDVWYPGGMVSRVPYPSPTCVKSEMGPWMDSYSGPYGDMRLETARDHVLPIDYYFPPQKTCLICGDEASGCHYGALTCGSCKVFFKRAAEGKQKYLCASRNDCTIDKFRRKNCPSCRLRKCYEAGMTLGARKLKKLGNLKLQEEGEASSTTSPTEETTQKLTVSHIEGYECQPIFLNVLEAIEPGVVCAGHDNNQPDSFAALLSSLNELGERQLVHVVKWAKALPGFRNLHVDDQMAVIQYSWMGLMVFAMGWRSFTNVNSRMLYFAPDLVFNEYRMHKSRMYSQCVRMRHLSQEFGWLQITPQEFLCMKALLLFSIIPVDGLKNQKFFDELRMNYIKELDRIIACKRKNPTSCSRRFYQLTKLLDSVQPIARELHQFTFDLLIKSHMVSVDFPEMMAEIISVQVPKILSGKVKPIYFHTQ
Assay: Assay on degradation activity for AR in VCaP cells (HTRF human androgen receptor detection kit)
Type: cell-based
Details: 24 h incubation
In short: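 VCaP cells seeded overnight in 2% CSS-FBS phenol red-free DMEM, then treated 24 h with compound at 1000 nM–0.977 nM final, in duplicate. Lysates probed with AR Eu cryptate/d2 antibody HTRF (2 h, 25° C., 665/620 nm); DC50 and Dmax from four-parameter dose-response fits.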

## N#Cc1ccc(O[C@H]2CC[C@H](NC(=O)c3ccc(C4CCN(C5CN(c6cc7onc(C8CCC(=O)NC8=O)c7c7ccccc67)C5)CC4)nn3)CC2)cc1Cl (stereo partly shown) [Compound 48]
  DC50: ≤ 1 nM
